Consider one molecule from paper PMC5494507, “γ‐Secretase inhibitors in cancer clinical trials are pharmacologically and functionally distinct” (EMBO Molecular Medicine, 2017).

The subject of this assay is MDA‐MB‐231 and MDA‐MB‐468 mammospheres. The assay is described as follows: Secondary mammosphere formation / limiting dilution assay and CD44+CD24low flow cytometry. Format: cell-based. As to the method: Suppression of breast cancer stem cells is thought to be a key mechanism of action for the anti‐tumor activity of GSIs in breast cancer models and in patient‐derived mammospheres (Takebe et al, 2015). […] Stem‐like cells are enriched in secondary mammospheres, but their number declines after four to five passages (Dontu et al, 2003; Dey et al, 2009). Therefore, we compared the GSIs in a secondary mammosphere formation assay at 1, 5, and 10 μM concentrations (Fig 7A and B for 10 μM and Appendix Fig S4 for 1 and 5 μM). We separately counted large mammospheres (> 500 μm in diameter) and small mammospheres (100–500 μm in diameter).
For limiting dilution assay, we used two distinct TNBC cell lines. MDA‐MB‐231 is molecularly “Mesenchymal”, PTEN wild type. MDA‐MB‐468 (ATCC, Manassas, VA) is molecularly “Basal‐like” and PTEN null. GSI‐treated (1, 5, and 10 μM twice/week, for 1 week) mammospheres were dissociated by trypsinization, and equal numbers of viable cells were re‐plated at clonal density (1,000, 100, and 10 cells) without GSIs. After 7‐day incubation, large mammospheres (> 500 μm) and small mammospheres (100–500 μm) were counted manually using a Nikon Eclipse Microscope. Next, we investigated whether PF‐3084014 selectively affected cancer stem‐like cells (CSCs) using both MDA‐MB‐231 and MDA‐MB‐468 cell lines. Mammospheres were treated with increasing concentration of PF‐3084014 for 1 week, and CSCs (CD44^+CD24^low) (Azzam et al, 2013) were analyzed by flow cytometry using anti‐human PE‐CD44 (Clone G44‐26) and FITC‐CD24 (Clone ML5) (BD Biosciences) antibody.

Regarding `CCC[C@H](N[C@H]1CCc2cc(F)cc(F)c2C1)C(=O)Nc1cn(C(C)(C)CNCC(C)(C)C)cn1` [PF‐3084014], under “5 and 10 μM, both cell lines”, the “absolute cell counts of mammospheres” value is “significantly more potent than the other compounds”. Also, for the setting “all concentrations tested, flow cytometry”, the “percentage of CD44+CD24low cells” value is listed as “decrease in percentage”. Further, the “total cell number and CSC fraction” value (both cell lines, 1 week treatment) is “decreased the total cell number and the CSC fraction”. Besides, the “absolute numbers of CD44+CD24low cells” value (flow cytometry) is “dose‐dependent decrease”.
